The text below walks through data of patent US6444703B1, “Cyclohexane carbocyclic ester derivative and cyclodextrin complex and composition for treatment of helicobacter pylori infections” (Teikoku Chemical Industries Co., Ltd., priority 1995, dated 2002).

The structures appear in SMILES notation. Where “and” joins values, the source holds several entries; their conditions need not be identical. Equal entries are not always repeated. Where two headings read alike, the source gives them in different places. A value given as a limit tells only on which side of the number the result lay.

Data set [1] concerns Helicobacter pylori ATCC 43504. Description: Eradication of Helicobacter pylori in stomach of infected Mongolian gerbils (viable cell counting). In kind it is in vivo. Particulars: oral 10 ml/kg three times on the 11th day, stomach viable cells 20 hours after final administration, individual animals 1-3, versus control 3.7 × 10^4 CFU/stomach, hydrochloride. The protocol:
Helicobacter pylori ATCC 43504 (100 μl) was inoculated into Brain heart infusion broth containing 10% calf serum and incubated at 37° C. for 24 hours in a microaerophilic atmosphere. The culture broth (0.5 ml containing about 3×10^8 CFU/ml) was administered orally to Mongolian gerbils (MON/Jms/Gba Slc; male of six weeks age) after fasting for 24 hours, then neither feed nor water was given for four hours and, after that, the animals were given with feed and water for ten days. Three infected animals as prepared in (1) were used per group. They were fasted from 20 hours before the 11th day (although water was made freely taken by them) and, during the fasted stage, 10 ml/kg each of the test drugs for administration prepared in Examples and Comparative Examples were orally given to them at 9:00, 13:00 and 17:00 o'clock on the 11th day. Feeding was started as from 21:00 o'clock and, after 20 hours from the final administration, stomach of the animals was removed and Helicobacter pylori living therein was subjected to a viable cell counting. The stomachs were cut open and the contents were removed (no washing conducted) and homogenized in 20 ml of 0.1M phosphate buffer (pH 7.2) to give a sample for viable cell counting. […] The growing colonies were counted after 6 days. […] Incidentally, the eradication rate was calculated according to the following calculating expression. […]

Data set [2] can be described thus: Solubility measurement (excess added to solvent, shaken one hour, supernatant assayed). Particulars: thermodynamic from solid, 25° C. In kind it is physicochemical. As for the experimental part: Incidentally, the method for measuring the solubility in each example is as follows. Thus, an excessive amount of the present compound was added to a certain amount of solvent, the mixture was shaken for one hour, the supernatant liquid was removed and the amount of the present compound contained therein was measured wherefrom the solubility was calculated.

For `Cc1ccc(COC(=O)c2ccc(-c3ccc(OC(=O)[C@H]4CC[C@H](CNC(=N)N)CC4)cc3)cc2)cc1.Cl` [Comp.Ex.1, 4-[4-(4-Methylbenzyloxycarbonyl)phenyl]phenyl trans-4-guanidinomethylcyclohexanecarboxylate hydrochloride], the “Eradication Rate (%)” value in data set [1] is 95.7% and 62.2% and 0%. Further, the solubility at 1 h was below 0.1 µg/mL in data set [2] (0.05M phosphate buffer, aqueous buffer, pH 6.5, read-out: Solubility in 0.05M phosphate buffer (pH 6.5)); below 0.1 µg/mL in data set [2] (0.1M acetate buffer, aqueous buffer, pH 4.0, read-out: Solubility in 0.1M acetate buffer (pH 4.0)); below 0.1 µg/mL in data set [2] (first fluid (The Japanese Pharmacopoeia), simulated gastric fluid, pH 1.2, read-out: Solubility in the first fluid (The Japanese Pharmacopoeia) (pH 1.2)); 24 µg/mL in data set [2] (water, read-out: Solubility in water).
